Measurements taken from patent US20240018145A1, “[…]-DEPENDENT EN[…] TREATING OR […]” (priority 2020, published 2024).

Tested on: FLU A (PR/8/34)
Test: Flu A Neuraminidase Antiviral Assay
Type: cell-based

Row | SMILES | EC50
1 | CN1C(=O)c2c(O)c(=O)ccn2N2C1CCCC21CCc2ccccc21 (single isomer, unassigned) [Compound 21B, 7-hydroxy-5-methyl-2′,3,3′,4,4a,5-hexahydro-2H-spiro[dipyrido[1,2-b:2′,1′-f][1,2,4]triazine-1,1′-indene]-6,8-dione] | 2.6 nM
2 | CN1C(=O)c2c(O)c(=O)ccn2N2C1CCC1(CCCC(F)(F)C1)C2c1ccccc1 (single isomer, unassigned) [Compound 75D, 3,3-difluoro-7′-hydroxy-5′-methyl-1′-phenyl-3′,4′,4a′,5′-tetrahydro-1′H-spiro[cyclohexane-1,2′-dipyrido[1,2-b:2′,1′-f][1,2,4]triazine]-6′,8′-dione] | 19.2 nM
3 | CN1C(=O)c2c(O)c(=O)ccn2N2C1CCC(O)C2(C)c1ccccc1 (stereo not shown) [Compound 137D, 2,7-dihydroxy-1,5-dimethyl-1-phenyl-1,2,3,4,4a,5-hexahydrodipyrido[1,2-b:2′,1′-f][1,2,4]triazine-6,8-dione] | 49.3 nM
4 | CCc1ccccc1C1C(CC(F)(F)F)CCC2N(C)C(=O)c3c(O)c(=O)ccn3N12 (single isomer, unassigned) [Compound 112A, 1-(2-ethylphenyl)-7-hydroxy-5-methyl-2-(2,2,2-trifluoroethyl)-1,2,3,4,4a,5-hexahydrodipyrido[1,2-b:2′,1′-f][1,2,4]triazine-6,8-dione] | 3.7 nM
5 | CN1C(=O)c2c(O)c(=O)ccn2N2C(c3ccccc3Br)C(CC(F)(F)F)CCC12 (single isomer, unassigned) [Compound 89B, 1-(2-bromophenyl)-7-hydroxy-5-methyl-2-(2,2,2-trifluoroethyl)-1,2,3,4,4a,5-hexahydrodipyrido[1,2-b:2′,1′-f][1,2,4]triazine-6,8-dione] | 2.4 nM
6 | CN1C(=O)c2c(O)c(=O)ccn2N2C1CCC2(C)c1ccccc1Cl (single isomer, unassigned) [Compound 63A, 1-(2-chlorophenyl)-6-hydroxy-1,4-dimethyl-2,3,3a,4-tetrahydro-1H-pyrido[2,1-f]pyrrolo[1,2-b][1,2,4]triazine-5,7-dione] | > 8100 nM
7 | Cc1cc(=O)c(O)c2n1N1C(c3ccccc3)C(CC(F)(F)F)CCC1N(C)C2=O (single isomer, unassigned) [Compound 132C, 7-hydroxy-5,10-dimethyl-1-phenyl-2-(2,2,2-trifluoroethyl)-1,2,3,4,4a,5-hexahydrodipyrido[1,2-b:2′,1′-f][1,2,4]triazine-6,8-dione] | > 810 nM
